This is an account of results in US20230190685A1, “FORMULATION” (UNION Therapeutics A/S, priority 2020, published 2023).

The EC50 is the concentration that produces a half-maximal response.

Assay type in all cases: cell-based
For one experiment, the system named is SARS-CoV-2 D614G strain.
The subject of experiment [1] is European D614G strain of SARS-CoV-2 (BavPat1/2020).
In experiment [2] the test system is SARS-CoV-2 (D614G strain). To be noted: read-out: EC50, replication of SARS-CoV-2.

Turning to `O=C(Nc1ccc([N+](=O)[O-])cc1Cl)c1cc(Cl)ccc1O` [niclosamide ethanolamine], the 50% effective concentration (EC50) in the experiment with SARS-CoV-2 D614G strain came out at 60 nM; in experiment [1] (read-out: EC50, apical infectious titer (TCID50)) it was 960 nM; in experiment [2], 100 nM. In addition, the “reduction of intracellular viral RNA level versus non-treated control” value in experiment [1] is on record as 3 fold.
